# Measured values reported in US9994862B2, “Rice resistant to HPPD and ACCase inhibiting herbicides” (priority 2011, dated 2018).
# Entries after “also recorded” stand apart in the source; their conditions may differ.
# Tests used:
# line PL1214418M2-73001 = assay: Mesotrione trait tolerance trial; type: in vivo, rice; conditions: 0.5x to 4x of 210 gmai/ha at 4 leaf stage, evaluated 4 weeks after application
# Description: During the breeding process to develop new lines (PL1214418M2-80048 and PL1214418M2-73009) with resistance/tolerance to HPPD and ACCase herbicides, two other lines were also investigated to determine the contribution of the HPPD tolerance mutation and the HPPD tolerance native gene. The line PL1214418M2-73001 carries ACCase tolerance and only the HPPD tolerance, whereas […] PL1214418M2-73013 carries ACCase tolerance and only the HPPD native tolerance gene. These selections allow the estimation of the tolerance effect of each of the two genes required for tolerance to HPPD herbicides. The tolerance effect of each gene was measured by growing the lines in single rows including the newly developed line PL1214418M2-73009 that carries both the HPPD tolerance from the mutation and the non-induced tolerance, the HPPD tolerant line ML0831266-0309, and the non-induced parent line P1003. The field plots were sprayed at the 4 leaf stage with the HPPD herbicide mesotrione at 0.5×, 1×, 2×, and 4× multiples of the labeled application rate of 210 gmai/ha.
# The plots were evaluated 4 weeks after the herbicide was applied. […] The two genes also appear to function in an additive manner as only by combining the two in the new line PL1214418M2-73009 does the tolerance level become equivalent to the original mutant line ML0831266-0309.
# unmutated line P1003 = assay: Mesotrione tolerance trials / herbicide bioassay; type: in vivo, rice
# Description: (§1) Selection of material inheriting mesotrione tolerance is accomplished by a simple herbicide bioassay. A high rate of mesotrione (at least 420 gm ai/ha) is applied allowing differentiation of heterozygous individuals from homozygous individuals and the tolerance level of the […] line from the inherent tolerance level in the background of some types of rice. In one example a rate of 105 gm ai/ha is applied followed three weeks later by a second application of 630 gm ai/ha. In another example a rate of 420 gm ai/ha is applied in a single application. Yet another example entails applying the herbicide at a rate of 630 gm ai/ha. Herbicide applications are done at the three to four leaf stage of seedling growth. The ideal situation is to have also planted near or within the plants to be selected a set of plants from the original mutant mesotrione tolerant donor line ML0831266-03093, (FIG. 18A) a row of plants of the wild-type of the […] line, P1003 (FIG. 18B), and a row of the line involved as the other parent in the cross (FIG. 18C). These control lines allow easy differentiation for inheritance of the tolerance provided by the ML0831266-03093 mutant line through comparison of the response in the plants to be selected with the control lines. Only plants that live and are relatively healthy will have inherited and be homozygous for the tolerance level provided by the ML0831266-03093 mutant line (FIG. 18A).
# (§2) The mutant line is planted in rows or alternatively whole plots are planted and rows of the unmutated line (P1003) and other types of rice or whole plots are planted. Mesotrione is applied pre-emergence or alternatively it is applied post-emergence at the three to four leaf stage of the rice plants. Various rates of mesotrione are applied pre-emergence, pre-emergence followed by post-emergent, or post-emergent with a single or sequential application. Post-emergent applications are applied at the 3-4 leaf stage of the rice.
# (§3) Seedlings of size 3 to 4 leaves are sprayed with mesotrione herbicide. In one set of 89 plants mesotrione is first applied at 105 gm ai/ha killing 23 plants. Both the mutant line control ML0831266-03093 and the unmutated line P1003 survived the herbicide application while the unmutated line R0146 was killed. The surviving plants including some additional plants making a total of 95 are then sprayed with another treatment of mesotrione at a rate of 630 gm ai/ha killing or injuring 67 while 28 survived. (FIG. 23) The surviving ratio of plants to those killed or injured fits a one quarter ratio with a chi squared value of 1.03, well within the expected for a single recessive gene. Another set of F2 individuals of size 78 individuals are sprayed with a single application of mesotrione herbicide at a rate of 420 gm ai/ha resulting in 26 plants surviving also fitting in the expected one quarter ratio for a single recessive gene with a chi square value of 2.88 (Table 2).
# unmutated line R0146 = assay: Mesotrione tolerance trials / herbicide bioassay; type: in vivo, rice
# Description: as §1, §2, §3
# common rice weeds = assay: Weed control by mesotrione in rice plots; type: in vivo; conditions: mesotrione alone; especially pre-plant or 2x the labeled rate of 210 gmai/ha
# Description: FIG. 6A-6B is a photograph of results of trait tolerance trials; weed control by mesotrione herbicide applied pre-planting was evaluated; the plots were planted with a hybrid of the HPPD tolerant line ML0831266-03093; just before planting, the plot on the right FIG. 6B received an application of mesotrione at 210 gmai/ha; the plot on the left FIG. 6A had no herbicide applied either pre-plant or post-emergence; pictures were taken four weeks after planting showing differences in weed appearance.
# Rice is tolerant to certain ACCase inhibitor herbicides, for example cyhalofop is registered for use in rice. However other ACCase herbicides kill or severely injure rice to varying degrees. […] The applied rates of both types of herbicides giving the weed control are well within the tolerance level of the respective ACCase and HPPD tolerant lines including the combined lines carrying tolerance to both HPPD and ACCase herbicides.
# Further validation of the trait involved testing the mutant line ML0831266-03093 in the presence of common rice weeds. […] This level of grass weed control was completely unexpected as mesotrione is labeled for controlling broadleaf weeds in monocot crops.
# [1] = tested on: permanent mutant population (lines derived from P1003, R0146, P1062); assay: Mesotrione screening of the permanent mutant population; type: in vivo, rice; conditions: 255.1 gm ai per acre, within twelve hours after planting
# Description: A mutation breeding program was initiated to develop proprietary herbicide resistant/tolerant lines. A permanent mutant population was created by exposing approximately 10,000 seeds (estimated by the average weight of a kernel) of three rice lines including P1003, R0146, and P1062 to both mutagens sodium azide (AZ) and methyl-nitrosourea (MNU). The treated seeds were planted. Individual plants were harvested creating 8,281 potentially […] lines. The lines have been maintained as a permanent mutant population for trait screening.
# Resistance to mesotrione herbicide was found by screening the permanent mutant population. All lines in the permanent mutant population were planted into a dry seed bed. Within twelve hours after planting mesotrione (Callisto®) was applied at a rate of 255.1 gm ai per acre. The field was immediately flushed with water and kept moist through periodic flushing. The seedlings grew, many were bleached white and all lines derived from R0146 died whereas plants lived from 21 lines derived from the P1003 and 2 derived from P1062 mutation populations. The HPPD gene was sequenced, and no genetic mutation was identified causing any amino acid substitutions (SEQ ID NOs: 1, 2, 3).
# [2] = one application at 105 gai/ha followed by a second application of 630 gai/ha
compound,measurement,setting,value
CS(=O)(=O)c1ccc(C(=O)C2C(=O)CCCC2=O)c([N+](=O)[O-])c1 [mesotrione],tolerance to mesotrione compared with P1003 and ML0831266-0309,line PL1214418M2-73001,intermediate tolerance
same,survival after mesotrione,unmutated line P1003; higher rates,killed or severally injured
same,survival after mesotrione,unmutated line P1003; low rate 105 gm ai/ha,survived
same,response of the rice to mesotrione,unmutated line P1003; [2],severely injured
same,survival after mesotrione,unmutated line R0146; low rate 105 gm ai/ha,killed
same,response of the rice to mesotrione,unmutated line R0146; [2],completely killed
same,weed control by mesotrione,common rice weeds,well controlled; also recorded: prevalent control; also recorded: Control of common weeds in rice was also achieved
same,number of lines derived from P1003 with plants that lived,[1],21 lines
same,number of lines derived from P1062 with plants that lived,[1],2 lines
same,response of lines derived from R0146,[1],died
